Reference: ChEMBL document CHEMBL1135524, “2-Ethyl and 2-ethylidene analogues of 1alpha,25-dihydroxy-19-norvitamin D(3): synthesis, conformational analysis, biological activities, and docking to the modeled rVDR ligand binding domain” (2002)
pEC50: −log10 of the molar value. Where “and” joins values, the source holds several entries; their conditions need not be identical. Identical values can stand only once.

Columns and labels:
[1] = tested on: HL-60; assay: Ability to induce differentiation of human promyelocyte HL-60 cells into monocytes.; format: functional; conditions: read-out: ED50 (the source's name)
[2] = species: Rattus norvegicus; assay: Intestinal calcium transport at dose 130 (pmol); format: functional
[3] = tested on: HL-60; assay: Ratio of average ED50 to 1-alpha,25-(OH)2D3 ED50 for differentiation assay; format: functional, Homo sapiens
[4] = species: Rattus norvegicus; assay: Intestinal calcium transport at dose 260 (pmol); format: functional
[5] = species: Rattus norvegicus; assay: (§1) Bone calcium mobilization in rats maintained on a very low calcium diet at a dose 130 (pmol); format: functional, organism-based
[6] = species: Rattus norvegicus; assay: Bone calcium mobilization in rats maintained on a very low calcium diet at a dose 260 (pmol); format: functional, organism-based
[7] = species: Rattus norvegicus; assay: as §1; format: functional, organism-based; remark: listed apart in the source
[8] = target: T1, Vitamin D3 receptor (Sus scrofa) (UniProt A3RGC1); assay: Binding affinity for porcine intestinal Vitamin D3 receptor (VDR)
T1 sequence (whole entry): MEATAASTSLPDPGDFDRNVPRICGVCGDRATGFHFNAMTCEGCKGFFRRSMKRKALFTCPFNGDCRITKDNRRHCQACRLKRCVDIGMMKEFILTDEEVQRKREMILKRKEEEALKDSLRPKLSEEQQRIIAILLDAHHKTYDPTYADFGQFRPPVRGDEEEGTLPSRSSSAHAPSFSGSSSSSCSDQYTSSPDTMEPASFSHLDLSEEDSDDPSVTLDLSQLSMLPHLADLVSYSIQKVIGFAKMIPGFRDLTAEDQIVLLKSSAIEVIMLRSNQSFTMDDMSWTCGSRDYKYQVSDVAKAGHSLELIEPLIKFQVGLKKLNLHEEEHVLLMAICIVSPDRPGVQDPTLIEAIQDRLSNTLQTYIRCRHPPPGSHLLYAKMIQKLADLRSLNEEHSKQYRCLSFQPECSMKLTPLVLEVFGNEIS

| Structure (SMILES) | pEC50 [1] | Ca2+ transport [2] | Activity ratio [3] | Ca2+ transport [4] | Serum Ca2+ [6] | also measured |
| --- | --- | --- | --- | --- | --- | --- |
| CC=C1[C@H](O)CC(=C/C=C2\CCC[C@]3(C)[C@@H]([C@@H](C)CCCC(C)(C)O)CC[C@@H]23)C[C@H]1O [listing 1 of 3 here] |  | 5.8 | 0.09 | 9 |  | pEC50 ([1]; Homo sapiens, HL-60): 9.66 |
| CCC1[C@H](O)CC(=C/C=C2\CCC[C@]3(C)[C@@H]([C@H](C)CCCC(C)(C)O)CC[C@@H]23)C[C@H]1O (some centres undefined) [listing 1 of 3 here] | 9.34 |  | 0.17 | 4 |  |  |
| C=C1/C(=C\C=C2/CCC[C@]3(C)[C@@H]([C@H](C)CCCC(C)(C)O)CC[C@@H]23)C[C@@H](O)C[C@@H]1O [CALCITRIOL] |  | 5.5 and 4.9 and 5.2 |  | 6.5 and 5.9 and 6 | 5.8 (2×) and 6.4 (2×) | Serum Ca2+ [5]: 5.1; Serum Ca2+ [7]: 5.2 and 5.7 |
| CCC1[C@H](O)CC(=C/C=C2\CCC[C@]3(C)[C@@H]([C@@H](C)CCCC(C)(C)O)CC[C@@H]23)C[C@H]1O (some centres undefined) [listing 1 of 3 here] |  |  |  |  | 5.6 |  |
| CC=C1[C@H](O)CC(=C/C=C2\CCC[C@]3(C)[C@@H]([C@H](C)CCCC(C)(C)O)CC[C@@H]23)C[C@H]1O [listing 2 of 3 here] |  | 6.8 | 0.8 | 5 |  | pEC50 ([1]; Homo sapiens, HL-60): 8.70 |
| CCC1[C@H](O)CC(=C/C=C2\CCC[C@]3(C)[C@@H]([C@H](C)CCCC(C)(C)O)CC[C@@H]23)C[C@H]1O (some centres undefined) [listing 2 of 3 here] |  |  |  |  | 5 and 5.1 |  |
| CC=C1[C@H](O)CC(=C/C=C2\CCC[C@]3(C)[C@@H]([C@H](C)CCCC(C)(C)O)CC[C@@H]23)C[C@H]1O [listing 3 of 3 here] |  |  |  |  | 4.5 and 4.4 | Serum Ca2+ [5]: 5.2 and 4.2 |
| CCC1[C@H](O)CC(=C/C=C2\CCC[C@]3(C)[C@@H]([C@H](C)CCCC(C)(C)O)CC[C@@H]23)C[C@H]1O (some centres undefined) [listing 3 of 3 here] | 7.92 |  | 4.4 | 3.7 |  |  |
| CCC1[C@H](O)CC(=C/C=C2\CCC[C@]3(C)[C@@H]([C@@H](C)CCCC(C)(C)O)CC[C@@H]23)C[C@H]1O (some centres undefined) [listing 2 of 3 here] | 8.20 |  | 2.3 | 4.1 |  |  |
| CC=C1[C@H](O)CC(=C/C=C2\CCC[C@]3(C)[C@@H]([C@@H](C)CCCC(C)(C)O)CC[C@@H]23)C[C@H]1O [listing 2 of 3 here] |  |  |  |  | 8.2 and 4.4 | Serum Ca2+ [5]: 12.1 and 5.1; ED50 [8]: 0.28 nM and 0.5 nM |

More lines, main results first:

| pEC50 [1] | Structure (SMILES) | Ca2+ transport [2] | Activity ratio [3] | Ca2+ transport [4] | Serum Ca2+ [6] | also measured |
| --- | --- | --- | --- | --- | --- | --- |
| 8.40 | CC=C1[C@H](O)CC(=C/C=C2\CCC[C@]3(C)[C@@H]([C@H](C)CCCC(C)(C)O)CC[C@@H]23)C[C@H]1O [listing 1 of 3 here] | 5.7 | 1.6 | 4.4 |  |  |
| 9.89 | CCC1[C@H](O)CC(=C/C=C2\CCC[C@]3(C)[C@@H]([C@@H](C)CCCC(C)(C)O)CC[C@@H]23)C[C@H]1O (some centres undefined) [listing 3 of 3 here] |  | 0.05 |  |  |  |
| 9.82 | CC=C1[C@H](O)CC(=C/C=C2\CCC[C@]3(C)[C@@H]([C@@H](C)CCCC(C)(C)O)CC[C@@H]23)C[C@H]1O [listing 3 of 3 here] | 6.7 | 0.06 | 6.6 |  |  |
